The structures appear in SMILES notation. Structures can show the parent of a compound that is named as a salt.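 Five concentrations, 48 hours, 96-well plates. GI50 is the concentration that inhibits growth by half.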 Activity calls are given as the source filed them. Rule as the data show it: active = GI50 up to about 1.1 µM and inactive = higher.

Some test systems named below: BT-549; HOP-62; MCF7; UO-31; OVCAR-4; MDA-MB-435; HL-60; DU-145; IGROV-1; HCT-15; NCI-H23; K562; OVCAR-8; KM12; OVCAR-3; MDA-MB-231; A498; ACHN; SK-MEL-2; Hs-578T.
Common to all, as to test: NCI anticancer screen, dose series, 48 h

With `CCN(CC)CCC(=O)NC1c2ccc(Cl)cc2Oc2c(C)cccc21` (centres undefined), the GI50 is 13.9 µM (inactive) with BT-549; > 10 µM (inactive) in the experiment on HOP-62; 15.7 µM (inactive) in the experiment with MCF7; 8.89 µM (inactive) in the experiment with UO-31; 14.3 µM (inactive) with OVCAR-4; 15.1 µM (inactive) in the experiment with MDA-MB-435. The GI50 was 13.9 µM (inactive) with HL-60; 16 µM (inactive) in the experiment on DU-145; 13 µM (inactive) in the experiment with IGROV-1; 18.7 µM in the experiment with HCT-15; 17.4 µM (inactive) with NCI-H23; 18.5 µM (inactive) in the experiment on K562. The GI50 in the experiment with OVCAR-8 is 16.9 µM (inactive); in the experiment on KM12, 15.6 µM (inactive); with OVCAR-3, 15.5 µM (inactive); with MDA-MB-231 it was 20.8 µM (inactive).
Regarding `Cc1cc(OCc2nn(CN3CCN(C)CC3)c(=S)n2/N=C/c2ccc(-c3ccc(Cl)cc3Cl)o2)ccc1Cl`, the GI50 is 39.3 µM (inactive) in the experiment with HOP-62; 39.4 µM (inactive) with MCF7; 36.3 µM (inactive) in the experiment with A498; 57.1 µM (inactive) in the experiment on UO-31; > 100 µM (inactive) with ACHN; 27 µM (inactive) in the experiment with OVCAR-4. For the same molecule, the GI50 with MDA-MB-435 is 29.5 µM (inactive); in the experiment on HL-60, 22.3 µM (inactive); with DU-145 it was > 100 µM (inactive); with SK-MEL-2, > 100 µM (inactive); in the experiment on IGROV-1 it was > 100 µM (inactive); with HCT-15, 28.5 µM. The GI50 with NCI-H23 was 39.6 µM (inactive); in the experiment with K562, 34.6 µM (inactive); in the experiment on OVCAR-8, 44 µM (inactive); with KM12, 20.3 µM (inactive); with OVCAR-3 it was 80 µM (inactive); in the experiment on Hs-578T, 39.6 µM (inactive). The GI50 in the experiment on MDA-MB-231 is 97.5 µM (inactive).
For the molecule `OC(c1cc(C(O)(C(F)(F)F)C(F)(F)F)ncn1)(C(F)(F)F)C(F)(F)F`, the GI50 in the experiment with HOP-62, in the experiment with MCF7, in the experiment on A498, in the experiment on UO-31, with ACHN and with OVCAR-4 was > 10 µM (inactive) in each case. Further, the GI50 in the experiment with MDA-MB-435 is > 10 µM (inactive); with HL-60 it was > 10 µM (inactive); in the experiment with DU-145, > 10 µM (inactive); in the experiment on SK-MEL-2 it was > 10 µM (inactive); with IGROV-1 it was > 10 µM (inactive); in the experiment with HCT-15, over 10 µM. The GI50 in the experiment on NCI-H23, with K562, in the experiment on OVCAR-8, with KM12, with OVCAR-3 and in the experiment on Hs-578T was > 10 µM (inactive) in each case. Besides, in the experiment on MDA-MB-231, the GI50 was > 10 µM (inactive).
On to `CN(C)CC1CCCC/C1=N/OC(=O)c1ccc(Cl)cc1` (centres undefined), for which the GI50 in the experiment on HOP-62, with A498, with UO-31, in the experiment on ACHN, in the experiment with OVCAR-4 and in the experiment on HL-60 was > 100 µM (inactive) throughout. The GI50 in the experiment with SK-MEL-2 is > 100 µM (inactive); with IGROV-1, > 100 µM (inactive); in the experiment with HCT-15 it was over 100 µM; with NCI-H23, > 100 µM (inactive); with K562 it was > 100 µM (inactive); in the experiment on OVCAR-8 it was > 100 µM (inactive). The GI50 in the experiment on KM12 and in the experiment on OVCAR-3 was > 100 µM (inactive) in each case.
On to `CCN(CC)C(=O)c1cc([N+](=O)[O-])c(=O)n2c1[nH]c1ccccc12`, for which the GI50 with HOP-62, in the experiment with UO-31, in the experiment on ACHN, with OVCAR-4, in the experiment on MDA-MB-435 and in the experiment with HL-60 was > 100 µM (inactive) in each case. In addition, the GI50 with DU-145, with IGROV-1, in the experiment with NCI-H23, in the experiment on K562, with OVCAR-8 and in the experiment with KM12 was > 100 µM (inactive) each time. The GI50 with OVCAR-3, in the experiment with Hs-578T and in the experiment with MDA-MB-231 was > 100 µM (inactive) throughout.
`Cc1[nH]n(-c2nc(-c3ccccc3)cc(=O)[nH]2)c(=O)c1CCO`: the GI50 in the experiment with HOP-62, with MCF7, in the experiment on UO-31, with ACHN, with OVCAR-4 and in the experiment with MDA-MB-435 was > 100 µM (inactive) each time. For the same molecule, the GI50 is > 100 µM (inactive) with HL-60; > 100 µM (inactive) in the experiment on DU-145; > 100 µM (inactive) with SK-MEL-2; > 100 µM (inactive) in the experiment on IGROV-1; over 100 µM in the experiment on HCT-15; > 100 µM (inactive) with NCI-H23. In addition, the GI50 in the experiment with K562, in the experiment on OVCAR-8, with KM12, in the experiment on OVCAR-3, with Hs-578T and in the experiment on MDA-MB-231 was > 100 µM (inactive) throughout.
On to `C#CC[C@]12CC(=O)CC[C@H]1CC(=O)C2`, for which the GI50 with HOP-62, in the experiment with A498, in the experiment with UO-31, in the experiment with ACHN, in the experiment with OVCAR-4 and in the experiment on HL-60 was > 100 µM (inactive) throughout. Further, the GI50 with SK-MEL-2 is > 100 µM (inactive); in the experiment on IGROV-1 it was > 100 µM (inactive); in the experiment with HCT-15, over 100 µM; with K562 it was > 100 µM (inactive); in the experiment on OVCAR-8, > 100 µM (inactive); with KM12, > 100 µM (inactive). Moreover, the GI50 in the experiment on OVCAR-3 was > 100 µM (inactive).
Consider `Cc1[nH]c2ccccc2c1CC/C(=N\Nc1ccccc1)c1ccccc1`, for which the GI50 with HOP-62, with A498, in the experiment on UO-31, in the experiment on ACHN, in the experiment on OVCAR-4 and in the experiment with HL-60 was > 100 µM (inactive) each time. The GI50 was > 100 µM (inactive) in the experiment on SK-MEL-2; > 100 µM (inactive) in the experiment with IGROV-1; over 100 µM with HCT-15; > 100 µM (inactive) in the experiment with NCI-H23; > 100 µM (inactive) in the experiment with K562; > 100 µM (inactive) with OVCAR-8. In addition, the GI50 in the experiment with KM12 and in the experiment with OVCAR-3 was > 100 µM (inactive) in each case.
As to `CO/C(=N\N=C\c1cccc(Cl)c1)c1ccncc1`, the GI50 in the experiment on BT-549, with HOP-62, in the experiment on MCF7, with UO-31, with ACHN and with OVCAR-4 was > 10 µM (inactive) throughout. In addition, the GI50 in the experiment with MDA-MB-435 is > 10 µM (inactive); with HL-60 it was > 10 µM (inactive); with DU-145, > 10 µM (inactive); in the experiment with SK-MEL-2 it was > 10 µM (inactive); with HCT-15, over 10 µM; in the experiment on NCI-H23 it was > 10 µM (inactive). For the same molecule, the GI50 with K562, with OVCAR-8, with KM12, in the experiment with OVCAR-3 and with MDA-MB-231 was > 10 µM (inactive) each time.
Take `CN(C)CCOC(=O)COc1ccc(Cl)cc1` [CENTROPHENOXINE HYDROCHLORIDE]: the GI50 was > 100 µM (inactive) in the experiment with HOP-62; 38.8 µM (inactive) in the experiment on MCF7; 98.6 µM (inactive) in the experiment with A498; > 100 µM (inactive) with UO-31; > 100 µM (inactive) in the experiment on ACHN; > 100 µM (inactive) in the experiment with OVCAR-4. Moreover, the GI50 is > 100 µM (inactive) in the experiment with MDA-MB-435; > 100 µM (inactive) in the experiment with DU-145; > 100 µM (inactive) in the experiment with SK-MEL-2; > 100 µM (inactive) in the experiment on IGROV-1; over 100 µM in the experiment with HCT-15; > 100 µM (inactive) in the experiment on NCI-H23. Also, the GI50 with K562, with OVCAR-8, in the experiment with KM12, in the experiment on OVCAR-3 and in the experiment on MDA-MB-231 was > 100 µM (inactive) throughout.
For the molecule `Cc1ccc(Oc2ccccc2N)cc1`, the GI50 with HOP-62 is 39 µM (inactive); in the experiment on A498, > 100 µM (inactive); in the experiment on UO-31 it was 12.4 µM (inactive); in the experiment with OVCAR-4 it was 50.9 µM (inactive); in the experiment with HL-60, 10.4 µM (inactive); in the experiment on SK-MEL-2 it was 51.5 µM (inactive). Further, the GI50 in the experiment with IGROV-1 was 50.4 µM (inactive); in the experiment on HCT-15, 19.5 µM; with NCI-H23, 39.9 µM (inactive); with K562, 37.8 µM (inactive); in the experiment with OVCAR-8, 79.3 µM (inactive); in the experiment on KM12, 33.3 µM (inactive). The GI50 in the experiment on OVCAR-3 was 15.8 µM (inactive).
Consider `O=C1c2ccccc2C(=O)N1CC1S(=O)(=O)OCCOS1(=O)=O`, for which the GI50 in the experiment on HOP-62, in the experiment with MCF7, in the experiment on A498, with UO-31, in the experiment with ACHN and in the experiment with OVCAR-4 was > 100 µM (inactive) throughout. For the same molecule, the GI50 in the experiment on MDA-MB-435 was > 100 µM (inactive); in the experiment on HL-60, > 100 µM (inactive); in the experiment with DU-145 it was > 100 µM (inactive); with IGROV-1, > 100 µM (inactive); in the experiment with HCT-15, over 100 µM; in the experiment with NCI-H23, > 100 µM (inactive). Besides, the GI50 in the experiment with K562, in the experiment on OVCAR-8, in the experiment with OVCAR-3, in the experiment with Hs-578T and in the experiment with MDA-MB-231 was > 100 µM (inactive) in each case.
For the molecule `Cn1c(=O)c2nc(-c3ccc(Cl)cc3)oc2n(C)c1=O`, the GI50 in the experiment with A498, in the experiment on UO-31, with ACHN, in the experiment on OVCAR-4, in the experiment on HL-60 and with SK-MEL-2 was > 100 µM (inactive) throughout. Besides, the GI50 in the experiment with HCT-15 was over 100 µM; with NCI-H23, > 100 µM (inactive); with K562 it was > 100 µM (inactive); in the experiment with OVCAR-8, > 100 µM (inactive); in the experiment on KM12, > 100 µM (inactive); with OVCAR-3, > 100 µM (inactive).

Values taken from ChEMBL document CHEMBL1201862, “PubChem BioAssay data set” (2004).
